Laboratory results taken from patent publication US9688760B2, “Anti-leukocyte adhesion for the mitigation of potential adverse events caused by CD3-specific binding domains” (AMGEN RESEARCH (MUNICH) GMBH, priority 2013, dated 2017).

Experiments:
[1] = test system: patients; assay: Phase 1 clinical study: Blinatumomab with PPS co-medication; type: in vivo, human; settings: for clinical response: with PPS co-medication
Method: In a phase 1 clinical study three patients were treated with Blinatumomab at an initial dose of 5 μg/m^2/day for 1 week followed by a dose escalation to 60 μg/m^2/day for additional 3 to 7 weeks.

[2] = test system: ICAM-1, P-selectin and VCAM-1 on HBMEC; assay: Immunofluorescence staining of HBMEC after T cell-rolling; type: cell-based, human
Method: After rolling and adhesion of T cells on HBMEC or HUVEC under flow conditions, endothelial cells were fixed using 150 μl of 4% paraformaldehyde solution (#P-6148, Sigma-Aldrich) for 30 min at 4° C. μ-slides were rinsed with 150 μl of D-PBS and subjected to immunofluorescence staining. HBMEC were first blocked with 150 μl of avidin blocking reagent (#PHA-70871, reagent 1, Dianova) for 10 min at room temperature, washed with 150 μl of D-PBS followed by incubation with 150 μl of biotin blocking reagent (#PHA-70871, reagent 2, Dianova). All following staining procedures were performed in 150 μl of D-PBS with 5% FBS at room temperature in the dark, and washing steps were done in 150 μl of D-PBS. μ-slides were incubated with 5 μg/ml polyclonal rabbit anti-human VCAM-1 (#106777, abcam) for 1 h. After washing, 20 μg/ml goat anti-rabbit IgG-DyLight350 was added for 1 h followed by washing and incubation with 15 μg/ml mouse anti-human P-selectin IgG1 (#BBA30, R&D Systems) for 2 h. After washing, goat anti-mouse IgG-Alexa488 (1:100) (#A10680, Invitrogen) was added for 1 h. […] VCAM-1 staining was monitored with a CFL EPI-FL Filter Block UV-2A (#MBE41200, Nikon), P-selectin staining with a CFL EPI-FL Filter Block GFP-B (#MBE44740, Nikon), and ICAM-1 staining with an EPI-FL Filter Block Cy3 (#MXU96213, Nikon). […]

[3] = test system: recombinant human P-selectin; assay: Flow chamber: T cell-rolling on recombinant P-selectin, semi short-term conditions; type: cell-based; settings: +AMG 103 10 ng/ml, coated at 20 μg/ml
Method: Recombinant proteins (rhICAM-1 #ADP4-050, rhVCAM-1 #ADP5-050 or rhP-selectin #ADP3-050, R&D Systems) were dissolved in ddH2O according to the manufacturer's instructions. Prior to rolling experiments recombinant proteins were diluted in Dulbecco's PBS with Ca^2+ and Mg^2+ (#L1815, Biochrom) and coated onto a μ-slide VI^0.4 Luer ibiTreat (#80606, ibidi) over night at 4° C. Before usage slides were washed three times with Dulbecco's PBS and blocked where indicated with 20% FBS (#10270, Gibco) in PBS for 2 h at room temperature. Blocking solution was replaced by RPMI 1640 medium (#FG1215, Biochrom) without supplements.
Isolation and characterization of human peripheral blood mononuclear cells (PBMC) and T cells from blood were performed as described in Example 2 (p. 48, 1-31). […]
For rolling experiments using freshly isolated T cells, these cells were resuspended in RPMI 1640 medium (#FG1215, Biochrom) without supplements to a final concentration of 1×10^6 cells/ml at the start of the experiment (t=0 min; addition of 10 ng/ml Blinatumomab (AMG 103)) and incubated for 35 min at 37° C. and 5% CO2. Cells were then filled in a perfusion set “white” (#10963, ibidi) which was connected to both a fluidic unit and the μ-slide and image sequences of 45 sec duration were recorded at t=40 min, 45 min, and 50 min as described in Example 2 (p. 50, 18-23). […]

[4] = three patients with PPS co-medication

Substance: Blinatumomab: recombinant CD19×CD3 bispecific scFv antibody consisting of four immunoglobulin variable domains assembled into a single polypeptide chain
- clinical response ([1]; Patient 109-036, Follicular Lymphoma grade I/II, after 57 days of civ infusion): complete response (CR)
- clinical response ([1]; Patient 109-040, Lymphoplasmocytic Lymphoma, after 30 days of civ infusion): stable disease (SD)
- clinical response ([1]; Patient 109-042, Follicular Lymphoma grade I/II, after 56 days of civ infusion): complete response (CR)
- T cell-counts in peripheral blood 45 minutes after start of infusion or stepwise dose increase ([1]; patients receiving Blinatumomab without co-medication with PPS): rapid decline of T cell-counts
- clinical response after 4 weeks of treatment [1, 4]: one patient had a stable disease
- clinical response after 8 weeks of treatment [1, 4]: Two out of the three patients achieved a complete response
- surface expression of adhesion molecules on HBMEC ([2]; after T cell-rolling with Blinatumomab-stimulated T cells, 120 min): increased surface expression of adhesion molecules ICAM-1, P-selectin and VCAM-1
- cell surface expression of P-selectin on HBMEC ([2]; histamine-stimulated HBMEC, Blinatumomab added, no PPS): increased
- mean T cell-rolling velocity±SD ([3]; Jurkat E6.1 T cells, t=45 min, control −AMG 103 500±81): 413±104 μm/sec
- mean T cell-rolling velocity±SD ([3]; freshly isolated T cells, t=50 min, with blocking, control −AMG 103 402±115): 293±73 μm/sec
